Our source for the IC50 values is patent US20240239752A1, “BICYCLIC HETEROAROMATIC INHIBITORS OF KLK5” (BioCryst Pharmaceuticals, Inc., priority 2021, published 2024).

One may read the IC50 as the concentration at which inhibition is half-maximal.

Each structure is given as a SMILES string.

In the test the target is T1, recombinant human KLK5 (Homo sapiens, UniProt Q9Y337).
T1 construct: purchased Novoprotein or R&D Systems C415 or 1108-SE
T1 sequence (Q9Y337 23-293): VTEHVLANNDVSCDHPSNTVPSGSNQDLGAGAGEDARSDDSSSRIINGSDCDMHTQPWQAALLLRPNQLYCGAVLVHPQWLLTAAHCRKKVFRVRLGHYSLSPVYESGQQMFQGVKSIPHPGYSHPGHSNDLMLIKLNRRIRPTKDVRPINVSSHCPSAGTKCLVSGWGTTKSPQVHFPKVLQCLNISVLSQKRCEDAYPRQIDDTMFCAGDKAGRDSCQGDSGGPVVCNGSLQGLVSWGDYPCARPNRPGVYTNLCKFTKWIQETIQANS
As to the kind of experiment: Kallikrein (KLK) 5 enzymatic assay (Boc-VPR-AMC fluorogenic substrate). The format is biochemical. The following applies: recombinant human KLK5 0.1 μg/well, Boc-VPR-AMC 100 μM, pH 7.5, room temperature, 1% DMSO; tested a minimum of three times. The procedure, abridged: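 Fluorogenic rate assay at pH 7.5 (0.1 M NaH2PO4, 1% DMSO, room temperature), run at least three times per compound. Compound was premixed with 0.1 μg/well recombinant human KLK5 before adding 100 μM Boc-VPR-AMC; AMC release was read at ex 380/em 460 nm, and IC50 derived from inhibition of rate vs DMSO control.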
Regarding `CCOC(=O)N1CC[C@H](n2nc(COc3cccc(C)c3CC(=O)O)c3cc(-c4ccc5ccnc(N)c5c4)ccc32)C1` [Compound 343i, (S)-2-(2-((5-(1-aminoisoquinolin-7-yl)-1-(1-(ethoxycarbonyl)pyrrolidin-3-yl)-1H-indazol-3-yl)methoxy)-6-methylphenyl)acetic acid], the IC50 is < 1000 nM.

Consider `CCOC(=O)N1CC[C@H](n2nc(COc3cccc(C)c3CC(=O)O)c3cc(-c4cccc5c(N)nccc45)ccc32)C1` [Compound 344b, (S)-2-(2-((5-(1-aminoisoquinolin-5-yl)-1-(1-(ethoxycarbonyl)pyrrolidin-3-yl)-1H-indazol-3-yl)methoxy)-6-methylphenyl)acetic acid], for which the IC50 is < 1000 nM.

As to `CCOC(=O)N1CC[C@H](n2nc(COc3ccccc3CC(=O)O)c3cc(-c4cccc5c(N)nccc45)ccc32)C1` [Compound 345e, (S)-2-(2-((5-(1-aminoisoquinolin-5-yl)-1-(1-(ethoxycarbonyl)pyrrolidin-3-yl)-1H-indazol-3-yl)methoxy)phenyl)acetic acid], the IC50 was < 1000 nM.

Regarding `CCOC(=O)N1CC[C@H](n2nc(COc3ccccc3CC(=O)O)c3cc(-c4ccc5ccnc(N)c5c4)ccc32)C1` [Compound 346b, (S)-2-(2-((5-(1-aminoisoquinolin-7-yl)-1-(1-(ethoxycarbonyl)pyrrolidin-3-yl)-1H-indazol-3-yl)methoxy)phenyl)acetic acid], the IC50 is < 1000 nM.

Turning to `CC(C)(C)OC(=O)N1CCC2(CC1)CC(Oc1ccccc1CC(=O)O)c1cc(-c3cccc4c(N)nccc34)ccc12` (stereo not drawn) [Compound 347d, 2-(2-((5-(1-aminoisoquinolin-5-yl)-1′-(tert-butoxycarbonyl)-2,3-dihydrospiro[indene-1,4′-piperidin]-3-yl)oxy)phenyl)acetic acid], the IC50 was < 1000 nM.

In the case of `CC(C)(C)OC(=O)N1CCC2(CC1)CC(Oc1ccccc1CC(=O)O)c1cc(-c3ccc4ccnc(N)c4c3)ccc12` (stereo not drawn) [Compound 348b, 2-(2-((5-(1-aminoisoquinolin-7-yl)-1′-(tert-butoxycarbonyl)-2,3-dihydrospiro[indene-1,4′-piperidin]-3-yl)oxy)phenyl)acetic acid], the IC50 is < 1000 nM.

Consider `CCOC(=O)N1CCC2(CC1)CC(Oc1ccccc1CC(=O)O)c1cc(-c3ccc4ccnc(N)c4c3)ccc12` (stereo not drawn) [Compound 349d, 2-(2-((5-(1-aminoisoquinolin-7-yl)-1′-(ethoxycarbonyl)-2,3-dihydrospiro[indene-1,4′-piperidin]-3-yl)oxy)phenyl)acetic acid], for which the IC50 is < 1000 nM.

`Nc1nccc2ccc(-c3ccc4c(c3)C(Oc3ccccc3CC(=O)O)CC43CCOCC3)cc12` (stereo not drawn) [Compound 350h, 2-(2-((5-(1-aminoisoquinolin-7-yl)-2,2′,3,3′,5′,6′-hexahydrospiro[indene-1,4′-pyran]-3-yl)oxy)phenyl)acetic acid]: the IC50 was < 1000 nM.

Regarding `Nc1nccc2c(-c3ccc4c(c3)C(Oc3ccccc3CC(=O)O)CC43CCOCC3)cccc12` (stereo not drawn) [Compound 351b, 2-(2-((5-(1-aminoisoquinolin-5-yl)-2,2′,3,3′,5′,6′-hexahydrospiro[indene-1,4′-pyran]-3-yl)oxy)phenyl)acetic acid], the IC50 is < 1000 nM.

For the molecule `Cc1cccc(OC2CC3(CCOCC3)c3ccc(-c4ccc5ccnc(N)c5c4)cc32)c1CC(=O)O` (stereo not drawn) [Compound 352c, 2-(2-((5-(1-aminoisoquinolin-7-yl)-2,2′,3,3′,5′,6′-hexahydrospiro[indene-1,4′-pyran]-3-yl)oxy)-6-methylphenyl)acetic acid], the IC50 was < 1000 nM.

For `Cc1cccc(OC2CC3(CCOCC3)c3ccc(-c4cccc5c(N)nccc45)cc32)c1CC(=O)O` (stereo not drawn) [Compound 353b, 2-(2-((5-(1-aminoisoquinolin-5-yl)-2,2′,3,3′,5′,6′-hexahydrospiro[indene-1,4′-pyran]-3-yl)oxy)-6-methylphenyl)acetic acid], the IC50 was < 1000 nM.

As to `Nc1nccc2c(-c3ccc4c(c3)C(Oc3ccccc3CC(=O)O)CC43CCCC3)cccc12` (stereo not drawn) [Compound 354f, 2-(2-((5′-(1-aminoisoquinolin-5-yl)-2′,3′-dihydrospiro[cyclopentane-1,1′-inden]-3′-yl)oxy)phenyl)acetic acid], the IC50 was < 1000 nM.

Regarding `Nc1nccc2ccc(-c3ccc4c(c3)C(Oc3ccccc3CC(=O)O)CC43CCCC3)cc12` (stereo not drawn) [Compound 355b, 2-(2-((5′-(1-aminoisoquinolin-7-yl)-2′,3′-dihydrospiro[cyclopentane-1,1′-inden]-3′-yl)oxy)phenyl)acetic acid], the IC50 is < 1000 nM.

As for `CCOC(=O)N1CC[C@H](n2nc(COc3cccc(C4CC4)c3CC(=O)O)c3cc(-c4ccc5ccnc(N)c5c4)ccc32)C1` [Compound 356e, (S)-2-(2-((5-(1-aminoisoquinolin-7-yl)-1-(1-(ethoxycarbonyl)pyrrolidin-3-yl)-1H-indazol-3-yl)methoxy)-6-cyclopropylphenyl)acetic acid], the IC50 was < 1000 nM.

As for `CCOC(=O)N1CC[C@H](n2nc(COc3cccc(C4CC4)c3CC(=O)O)c3cc(-c4cccc5c(N)nccc45)ccc32)C1` [Compound 357b, (S)-2-(2-((5-(1-aminoisoquinolin-5-yl)-1-(1-(ethoxycarbonyl)pyrrolidin-3-yl)-1H-indazol-3-yl)methoxy)-6-cyclopropylphenyl)acetic acid], the IC50 was < 1000 nM.

Turning to `CC(C)OC(=O)N1CC[C@H](n2nc(COc3ccccc3CC(=O)O)c3cc(-c4ccc5ccnc(N)c5c4)ccc32)C1` [Compound 358c, (S)-2-(2-((5-(1-aminoisoquinolin-7-yl)-1-(1-(isopropoxycarbonyl)pyrrolidin-3-yl)-1H-indazol-3-yl)methoxy)phenyl)acetic acid], the IC50 was < 1000 nM.

For `CC(C)OC(=O)N1CC[C@H](n2nc(COc3ccccc3CC(=O)O)c3cc(-c4cccc5c(N)nccc45)ccc32)C1` [Compound 359b, (S)-2-(2-((5-(1-aminoisoquinolin-5-yl)-1-(1-(isopropoxycarbonyl)pyrrolidin-3-yl)-1H-indazol-3-yl)methoxy)phenyl)acetic acid], the IC50 was < 1000 nM.

`CC(C)COC(=O)N1CC[C@H](n2nc(COc3ccccc3CC(=O)O)c3cc(-c4ccc5ccnc(N)c5c4)ccc32)C1` [Compound 360c, (S)-2-(2-((5-(1-aminoisoquinolin-7-yl)-1-(1-(isobutoxycarbonyl)pyrrolidin-3-yl)-1H-indazol-3-yl)methoxy)phenyl)acetic acid]: the IC50 was < 1000 nM.

As for `CC(C)COC(=O)N1CC[C@H](n2nc(COc3ccccc3CC(=O)O)c3cc(-c4cccc5c(N)nccc45)ccc32)C1` [Compound 361b, (S)-2-(2-((5-(1-aminoisoquinolin-5-yl)-1-(1-(isobutoxycarbonyl)pyrrolidin-3-yl)-1H-indazol-3-yl)methoxy)phenyl)acetic acid], the IC50 is < 1000 nM.

As for `CC(C)OC(=O)N1CC[C@@H](n2nc(COc3ccccc3CC(=O)O)c3cc(-c4ccc5ccnc(N)c5c4)ccc32)C1` [Compound 362c, (R)-2-(2-((5-(1-aminoisoquinolin-7-yl)-1-(1-(isopropoxycarbonyl)pyrrolidin-3-yl)-1H-indazol-3-yl)methoxy)phenyl)acetic acid], the IC50 was < 1000 nM.

For the molecule `CC(C)OC(=O)N1CC[C@@H](n2nc(COc3ccccc3CC(=O)O)c3cc(-c4cccc5c(N)nccc45)ccc32)C1` [Compound 363b, (R)-2-(2-((5-(1-aminoisoquinolin-5-yl)-1-(1-(isopropoxycarbonyl)pyrrolidin-3-yl)-1H-indazol-3-yl)methoxy)phenyl)acetic acid], the IC50 was < 1000 nM.
